# PubChem BioAssay AID1918995 (Molecular Pharmacology Branch, DTP, NCI, 2023)
# System: 324938-238-R-J1-PDC complex spheroid growth, % test/control
# Test: Anticancer human tumor 324938-238-R-J1-PDC patient-derived bladder carcinoma cell line growth inhibition [AhR]
# Settings: for IC50: curve of first compound; for viability, T/C: stronger effect = lower value
# Outline: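 Complex tumor spheroids co-cultured with HUVEC and human MSC stroma; AhR antagonists tested in combination with standard-of-care and investigational agents. Top concentration at or near clinical Cmax (else 10 microM), half-log dilutions; growth expressed as percent test/control.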
# [1] = second compound 0.1 µM, first compound 0.0316 µM
# [2] = second compound 0.1 µM, first compound 0.1 µM
# [3] = second compound 0.1 µM, first compound 0.316 µM
# [4] = second compound 0.1 µM, first compound 1 µM
# [5] = second compound 0.1 µM, first compound 3.16 µM
# [6] = second compound 0.1 µM, first compound 10 µM
# [7] = second compound 0.316 µM, first compound 0.0316 µM
# [8] = second compound 0.316 µM, first compound 0.1 µM
# [9] = second compound 0.316 µM, first compound 0.316 µM
# [10] = second compound 0.316 µM, first compound 1 µM
# [11] = second compound 0.316 µM, first compound 3.16 µM
# [12] = second compound 0.316 µM, first compound 10 µM
# [13] = second compound 1 µM, first compound 0.0316 µM
# [14] = second compound 1 µM, first compound 0.1 µM
# [15] = second compound 1 µM, first compound 0.316 µM
# [16] = second compound 1 µM, first compound 1 µM
# [17] = second compound 1 µM, first compound 3.16 µM
# [18] = second compound 1 µM, first compound 10 µM
# [19] = second compound 3.16 µM, first compound 0.0316 µM
# [20] = second compound 3.16 µM, first compound 0.1 µM
# [21] = second compound 3.16 µM, first compound 0.316 µM
# [22] = second compound 3.16 µM, first compound 1 µM
# [23] = second compound 3.16 µM, first compound 3.16 µM
# [24] = second compound 3.16 µM, first compound 10 µM
# [25] = second compound 10 µM, first compound 0.0316 µM
# [26] = second compound 10 µM, first compound 0.1 µM
# [27] = second compound 10 µM, first compound 0.316 µM
# [28] = second compound 10 µM, first compound 1 µM
# [29] = second compound 10 µM, first compound 3.16 µM
# [30] = second compound 10 µM, first compound 10 µM
# 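Note: spheroids exposed to agents for seven days before viability read.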
smiles,measurement,setting,value
CC(C)c1c(-c2ccccc2)nc2c(C#N)c[nH]n2c1=O + CC(CO)NC(=O)c1cc(-c2ccc(Cl)cc2)nn(-c2cnn(C)c2)c1=O,IC50,second compound 0.1 µM,> 10000 nM
same,IC50,second compound 0.316 µM,> 10000 nM
same,IC50,second compound 1 µM,> 10000 nM
same,IC50,second compound 3.16 µM,> 10000 nM
same,IC50,second compound 10 µM,> 10000 nM
same,"viability, T/C",[1],110%
same,"viability, T/C",[2],115%
same,"viability, T/C",[3],88.1%
same,"viability, T/C",[4],87.2%
same,"viability, T/C",[5],92.5%
same,"viability, T/C",[6],88%
same,"viability, T/C",[7],94.7%
same,"viability, T/C",[8],98.9%
same,"viability, T/C",[9],92.8%
same,"viability, T/C",[10],78.8%
same,"viability, T/C",[11],88.5%
same,"viability, T/C",[12],81.2%
same,"viability, T/C",[13],87.5%
same,"viability, T/C",[14],88.1%
same,"viability, T/C",[15],87.4%
same,"viability, T/C",[16],76.5%
same,"viability, T/C",[17],89.2%
same,"viability, T/C",[18],75.8%
same,"viability, T/C",[19],73.4%
same,"viability, T/C",[20],76.4%
same,"viability, T/C",[21],71%
same,"viability, T/C",[22],64.4%
same,"viability, T/C",[23],63.4%
same,"viability, T/C",[24],60.9%
same,"viability, T/C",[25],65.4%
same,"viability, T/C",[26],67%
same,"viability, T/C",[27],64%
same,"viability, T/C",[28],57.9%
same,"viability, T/C",[29],54.9%
same,"viability, T/C",[30],56.5%
CC1COCCN1c1cc(-c2ccnn2C)c2ccnc(-c3ccn[nH]3)c2n1 (stereo not given) + CC(CO)NC(=O)c1cc(-c2ccc(Cl)cc2)nn(-c2cnn(C)c2)c1=O,IC50,second compound 0.1 µM,81.3 nM
same,IC50,second compound 0.316 µM,65 nM
same,IC50,second compound 1 µM,67.1 nM
same,IC50,second compound 3.16 µM,36.7 nM
same,IC50,second compound 10 µM,22.5 nM
same,"viability, T/C","second compound 0.1 µM, first compound 0.00316 µM",97%
same,"viability, T/C","second compound 0.1 µM, first compound 0.01 µM",110%
same,"viability, T/C",[1],75.2%
same,"viability, T/C",[2],44.6%
same,"viability, T/C",[3],29.7%
same,"viability, T/C",[4],18.6%
same,"viability, T/C","second compound 0.316 µM, first compound 0.00316 µM",88.6%
same,"viability, T/C","second compound 0.316 µM, first compound 0.01 µM",102%
same,"viability, T/C",[7],72.7%
same,"viability, T/C",[8],36.6%
same,"viability, T/C",[9],26.4%
same,"viability, T/C",[10],21.6%
same,"viability, T/C","second compound 1 µM, first compound 0.00316 µM",88.7%
same,"viability, T/C","second compound 1 µM, first compound 0.01 µM",86.6%
same,"viability, T/C",[13],72.8%
same,"viability, T/C",[14],37.7%
same,"viability, T/C",[15],24.1%
same,"viability, T/C",[16],20.4%
same,"viability, T/C","second compound 3.16 µM, first compound 0.00316 µM",75.9%
same,"viability, T/C","second compound 3.16 µM, first compound 0.01 µM",79%
same,"viability, T/C",[19],51%
same,"viability, T/C",[20],31.1%
same,"viability, T/C",[21],26.7%
same,"viability, T/C",[22],18.7%
same,"viability, T/C","second compound 10 µM, first compound 0.00316 µM",62.6%
same,"viability, T/C","second compound 10 µM, first compound 0.01 µM",63.7%
same,"viability, T/C",[25],43.9%
same,"viability, T/C",[26],29%
same,"viability, T/C",[27],24.8%
same,"viability, T/C",[28],20.1%
COc1ccc([C@@H](O)c2cc(-c3ncnc4cc(N5CCOCC5)ccc34)c(F)cc2Cl)nn1 + CC(CO)NC(=O)c1cc(-c2ccc(Cl)cc2)nn(-c2cnn(C)c2)c1=O,IC50,second compound 0.1 µM,> 10000 nM
same,IC50,second compound 0.316 µM,> 10000 nM
same,IC50,second compound 1 µM,> 10000 nM
same,IC50,second compound 3.16 µM,> 10000 nM
same,IC50,second compound 10 µM,> 10000 nM
same,"viability, T/C",[1],99.4%
same,"viability, T/C",[2],110%
same,"viability, T/C",[3],90.2%
same,"viability, T/C",[4],81.8%
same,"viability, T/C",[5],78.5%
same,"viability, T/C",[6],66.5%
same,"viability, T/C",[7],89.4%
same,"viability, T/C",[8],93.4%
same,"viability, T/C",[9],96.8%
same,"viability, T/C",[10],76.4%
same,"viability, T/C",[11],71.6%
same,"viability, T/C",[12],59.5%
same,"viability, T/C",[13],88.8%
same,"viability, T/C",[14],88.7%
same,"viability, T/C",[15],91.6%
same,"viability, T/C",[16],70.6%
same,"viability, T/C",[17],59.5%
same,"viability, T/C",[18],60.1%
same,"viability, T/C",[19],75.2%
same,"viability, T/C",[20],71.1%
same,"viability, T/C",[21],68.3%
same,"viability, T/C",[22],60%
same,"viability, T/C",[23],63.6%
same,"viability, T/C",[24],51.8%
same,"viability, T/C",[25],70.7%
same,"viability, T/C",[26],65.5%
same,"viability, T/C",[27],63.8%
same,"viability, T/C",[28],56.1%
same,"viability, T/C",[29],55%
same,"viability, T/C",[30],55.8%
O=C(C=Cn1cnc(-c2cc(C(F)(F)F)cc(C(F)(F)F)c2)n1)NNc1cnccn1 + CC(CO)NC(=O)c1cc(-c2ccc(Cl)cc2)nn(-c2cnn(C)c2)c1=O,IC50,second compound 0.1 µM,123 nM
same,IC50,second compound 0.316 µM,138 nM
same,IC50,second compound 1 µM,135 nM
same,IC50,second compound 3.16 µM,96.2 nM
same,IC50,second compound 10 µM,125 nM
same,"viability, T/C","second compound 0.1 µM, first compound 0.00949 µM",83.2%
same,"viability, T/C","second compound 0.1 µM, first compound 0.03 µM",77.4%
same,"viability, T/C","second compound 0.1 µM, first compound 0.0949 µM",51.8%
same,"viability, T/C","second compound 0.1 µM, first compound 0.3 µM",34.9%
same,"viability, T/C","second compound 0.1 µM, first compound 0.949 µM",17.8%
same,"viability, T/C","second compound 0.1 µM, first compound 3 µM",11.8%
same,"viability, T/C","second compound 0.316 µM, first compound 0.00949 µM",75.7%
same,"viability, T/C","second compound 0.316 µM, first compound 0.03 µM",87.5%
same,"viability, T/C","second compound 0.316 µM, first compound 0.0949 µM",53.8%
same,"viability, T/C","second compound 0.316 µM, first compound 0.3 µM",33.5%
same,"viability, T/C","second compound 0.316 µM, first compound 0.949 µM",19.8%
same,"viability, T/C","second compound 0.316 µM, first compound 3 µM",12.6%
same,"viability, T/C","second compound 1 µM, first compound 0.00949 µM",82.3%
same,"viability, T/C","second compound 1 µM, first compound 0.03 µM",76.4%
same,"viability, T/C","second compound 1 µM, first compound 0.0949 µM",58%
same,"viability, T/C","second compound 1 µM, first compound 0.3 µM",31.1%
same,"viability, T/C","second compound 1 µM, first compound 0.949 µM",23.1%
same,"viability, T/C","second compound 1 µM, first compound 3 µM",14.2%
same,"viability, T/C","second compound 3.16 µM, first compound 0.00949 µM",69.1%
same,"viability, T/C","second compound 3.16 µM, first compound 0.03 µM",65%
same,"viability, T/C","second compound 3.16 µM, first compound 0.0949 µM",50.7%
same,"viability, T/C","second compound 3.16 µM, first compound 0.3 µM",27.2%
same,"viability, T/C","second compound 3.16 µM, first compound 0.949 µM",19%
same,"viability, T/C","second compound 3.16 µM, first compound 3 µM",12.8%
same,"viability, T/C","second compound 10 µM, first compound 0.00949 µM",62%
same,"viability, T/C","second compound 10 µM, first compound 0.03 µM",61.8%
same,"viability, T/C","second compound 10 µM, first compound 0.0949 µM",57.7%
same,"viability, T/C","second compound 10 µM, first compound 0.3 µM",31.3%
same,"viability, T/C","second compound 10 µM, first compound 0.949 µM",24.8%
same,"viability, T/C","second compound 10 µM, first compound 3 µM",11.4%
